Measured values as given in ChEMBL document CHEMBL2010717, “Design of oxobenzimidazoles and oxindoles as novel androgen receptor antagonists” (Bioorg Med Chem Lett, 2012).
Converted amounts (≈) assume the structure as drawn.

Columns and labels:
Androgen receptor = biological target: T1, Androgen receptor (Homo sapiens, UniProt P10275); assay: Antagonist activity at androgen receptor in human LNAR cells expressing ARE-PSA-LUC by luminescence analysis in presence of R1881; format: functional, cell-based
T1 sequence (P10275 whole entry): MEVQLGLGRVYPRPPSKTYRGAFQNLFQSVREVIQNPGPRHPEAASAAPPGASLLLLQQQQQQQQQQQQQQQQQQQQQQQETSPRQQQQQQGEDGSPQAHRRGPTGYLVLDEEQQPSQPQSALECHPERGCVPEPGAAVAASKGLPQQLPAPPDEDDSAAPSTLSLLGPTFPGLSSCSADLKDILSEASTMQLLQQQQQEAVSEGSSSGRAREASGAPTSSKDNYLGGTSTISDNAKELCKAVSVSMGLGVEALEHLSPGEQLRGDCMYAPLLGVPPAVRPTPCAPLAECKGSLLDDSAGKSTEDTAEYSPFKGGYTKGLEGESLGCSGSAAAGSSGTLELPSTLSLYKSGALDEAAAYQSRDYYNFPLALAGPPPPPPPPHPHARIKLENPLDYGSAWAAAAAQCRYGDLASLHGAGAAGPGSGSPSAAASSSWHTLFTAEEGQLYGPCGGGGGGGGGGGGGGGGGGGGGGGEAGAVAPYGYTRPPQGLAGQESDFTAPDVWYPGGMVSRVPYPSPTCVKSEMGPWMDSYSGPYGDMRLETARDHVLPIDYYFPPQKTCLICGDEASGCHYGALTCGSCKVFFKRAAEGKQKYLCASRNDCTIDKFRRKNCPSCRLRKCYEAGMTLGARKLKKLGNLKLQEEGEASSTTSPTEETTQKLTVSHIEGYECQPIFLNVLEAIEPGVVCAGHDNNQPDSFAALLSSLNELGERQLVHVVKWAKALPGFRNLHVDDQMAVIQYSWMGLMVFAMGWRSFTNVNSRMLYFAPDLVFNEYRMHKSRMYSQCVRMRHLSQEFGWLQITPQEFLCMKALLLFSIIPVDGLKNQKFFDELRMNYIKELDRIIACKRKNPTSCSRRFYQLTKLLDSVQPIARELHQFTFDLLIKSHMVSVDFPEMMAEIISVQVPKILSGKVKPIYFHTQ

[1] = biological target: T2, Androgen receptor (Homo sapiens) (UniProt P10275); assay: Agonist activity at androgen receptor in human LNAR cells expressing ARE-PSA-LUC at 1 uM by luminescence analysis relative to RD-162; format: functional, cell-based
T2 sequence (whole entry): T1 sequence (P10275 whole entry)

[2] = Aqueous solubility of the compound; format: physicochemical
[3] = biological target: T2, Androgen receptor (Homo sapiens); assay: Antagonist activity at androgen receptor in human LNAR cells expressing ARE-PSA-LUC at 1 uM by luminescence analysis in presence of R1881; format: functional, cell-based
[4] = Metabolic stability in human liver microsomes assessed as extraction ratio; format: ADME, Microsome; conditions: read-out: ERH

| Structure (SMILES) | IC50 (Androgen receptor) [nM] | fold change (FC) [1] | solubility ([2]; aqueous, read-out: solubility) [µM] | inhibition [3] [%] | hepatic extraction ratio [4] | solubility ([2]; buffer) [µM] |
| --- | --- | --- | --- | --- | --- | --- |
| CCn1c(=O)n(-c2ccc(C#N)c(C(F)(F)F)c2)c2ccccc21 | 293 | 1.08 | 3.47 (≈ 1.15 µg/mL) |  |  |  |
| N#Cc1ccc(-n2c(=O)n(Cc3ccccc3)c3ccccc32)cc1C(F)(F)F | 170 | 1.04 | < 0.16 |  |  |  |
| N#CCn1c(=O)n(-c2ccc(C#N)c(C(F)(F)F)c2)c2ccccc21 |  | 1.42 | 18.9 (≈ 6.47 µg/mL) | 94.8 |  |  |
| CC(C)n1c(=O)n(-c2ccc(C#N)c(C(F)(F)F)c2)c2ccccc21 | 373 | 0.965 | 9.3 (≈ 3.21 µg/mL) |  |  |  |
| COc1cc(N2C(=O)C(C)(C)c3cc(-c4cccnc4OC)ccc32)ccc1C#N | 79.6 | 1.04 | 9.8 (≈ 3.91 µg/mL) |  |  |  |
| CC(c1ccccc1)n1c(=O)n(-c2ccc(C#N)c(C(F)(F)F)c2)c2ccccc21 (single isomer, unassigned; (+)) [listing 1 of 2 here] |  | 0.904 |  |  |  |  |
| CC(c1ccccc1)n1c(=O)n(-c2ccc(C#N)c(C(F)(F)F)c2)c2ccccc21 (stereo in doubt; (-)-20) [listing 1 of 2 here] | 363 |  | 5.58 (≈ 2.27 µg/mL) |  |  |  |
| N#Cc1ccc(-n2c(=O)n(Cc3ccccc3)c3ncccc32)cc1C(F)(F)F | 588 | 0.951 |  |  |  |  |
| N#Cc1ccc(-n2c(=O)n(Cc3ccccc3)c3cccnc32)cc1C(F)(F)F | 60.6 | 1.13 | < 0.5 |  |  |  |
| CNC(=O)c1ccc(-c2ccc3c(c2)C(C)(C)C(=O)N3c2ccc(C#N)c(C(F)(F)F)c2)cc1F | 197 | 0.941 | 6.25 (≈ 3.01 µg/mL) |  | 0.4 |  |
| CC(c1nc(-c2ccccn2)no1)n1c(=O)n(-c2ccc(C#N)c(Cl)c2)c2ccccc21 (single isomer, unassigned; (+)) [listing 1 of 2 here] |  | 0.874 |  |  |  |  |
| CNC(=O)c1ccc(Cn2c(=O)n(-c3ccc(C#N)c(C(F)(F)F)c3)c3ccccc32)cc1F |  | 1.08 | 9.9 (≈ 4.64 µg/mL) | 72.5 |  |  |
| CC(c1ccccc1)n1c(=O)n(-c2ccc(C#N)c(C(F)(F)F)c2)c2ccccc21 (stereo in doubt; (-)-20) [listing 2 of 2 here] |  | 0.833 |  |  |  |  |
| CC1(C)C(=O)N(c2ccc(C#N)c(C(F)(F)F)c2)c2ccccc21 |  | 1.96 |  | 75.7 |  |  |
| CC(c1ccccc1)n1c(=O)n(-c2ccc(C#N)c(C(F)(F)F)c2)c2ccccc21 (single isomer, unassigned; (+)) [listing 2 of 2 here] | 292 |  |  |  |  | 4.41 (≈ 1.8 µg/mL) |
| CNC(=O)c1ccc(-c2ccc3c(c2)C(C)(C)C(=O)N3c2ccc(C#N)c(OC)c2)cc1F | 165 | 0.884 | 9.7 (≈ 4.3 µg/mL) |  | < 0.25 |  |
| CC(c1nc(-c2ccccn2)no1)n1c(=O)n(-c2ccc(C#N)c(Cl)c2)c2ccccc21 (single isomer, unassigned; (+)) [listing 2 of 2 here] | 178 |  | 9.45 (≈ 4.19 µg/mL) |  |  |  |
| N#Cc1ccc(-n2c(=O)n(Cc3cccnc3)c3ccccc32)cc1C(F)(F)F | 389 | 0.984 | 2.5 (≈ 0.986 µg/mL) |  |  |  |
| N#Cc1ccc(-n2c(=O)n(Cc3nc(-c4ccccn4)no3)c3ccccc32)cc1Cl | 126 | 0.941 | 5.9 (≈ 2.53 µg/mL) |  |  |  |
| N#Cc1ccc(-n2c(=O)n(Cc3ccccn3)c3ccccc32)cc1C(F)(F)F | 301 | 1.03 | 12 (≈ 4.73 µg/mL) |  |  |  |
| N#Cc1ncc(-n2c(=O)n(Cc3ccccc3)c3cccnc32)cc1C(F)(F)F |  | 1.1 | 1.7 (≈ 0.672 µg/mL) | 96.3 |  |  |
| N#Cc1ncc(-n2c(=O)n(Cc3ccccc3)c3ccccc32)cc1C(F)(F)F |  | 1.04 | 5.3 (≈ 2.09 µg/mL) | 91 |  |  |
| N#Cc1ccc(-n2c(=O)[nH]c3ccccc32)cc1C(F)(F)F |  | 6.2 | 7.9 (≈ 2.4 µg/mL) | 60.1 |  |  |
| CC(c1nc(-c2ccccn2)no1)n1c(=O)n(-c2ccc(C#N)c(Cl)c2)c2ccccc21 (stereo in doubt; (-)-23) [listing 1 of 2 here] |  | 0.945 |  |  |  |  |
| CNC(=O)c1ccc(-n2c(=O)n(-c3ccc(C#N)c(C(F)(F)F)c3)c3ccccc32)cc1F |  | 1.44 | 8.81 (≈ 4 µg/mL) | 28.7 |  |  |
| CC(c1nc(-c2ccccn2)no1)n1c(=O)n(-c2ccc(C#N)c(Cl)c2)c2ccccc21 (stereo in doubt; (-)-23) [listing 2 of 2 here] | 189 |  |  |  |  |  |
| Cc1ccc(-n2c(=O)n(-c3ccc(C#N)c(C(F)(F)F)c3)c3ccccc32)cc1 |  | 0.88 | 0.79 (≈ 0.311 µg/mL) | 12.6 |  |  |
